From patent US9790169B2, “IDO inhibitors” (BRISTOL-MYERS SQUIBB COMPANY, priority 2015, dated 2017)

Molecular target: human IDO1 (Homo sapiens, UniProt P14902)
Test: Assessment of human IDO-1 inhibitory activity in Hela cells (Interferon-gamma stimulated HeLa cells, Ehrlich reagent, absorbance 490 nm)
Type: cell-based
Design: endogenous in cells; host or cells: HeLa cells stimulated with interferon-gamma
Conditions: Hela Human IDO-1 cellular assay
In short: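 HeLa cells pre-incubated with compound 1 h at 37 °C, then stimulated with human IFN-γ (10 ng/ml final) or murine IFN-γ (5 ng/ml final) for 18 h. Kynurenine read with Ehrlich reagent at 490 nm after TCA (3%) and 50 °C treatment; IC50 normalized to unstimulated (100%) and IFN-γ-only (0%) wells.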

human IDO1, sequence (P14902 whole entry): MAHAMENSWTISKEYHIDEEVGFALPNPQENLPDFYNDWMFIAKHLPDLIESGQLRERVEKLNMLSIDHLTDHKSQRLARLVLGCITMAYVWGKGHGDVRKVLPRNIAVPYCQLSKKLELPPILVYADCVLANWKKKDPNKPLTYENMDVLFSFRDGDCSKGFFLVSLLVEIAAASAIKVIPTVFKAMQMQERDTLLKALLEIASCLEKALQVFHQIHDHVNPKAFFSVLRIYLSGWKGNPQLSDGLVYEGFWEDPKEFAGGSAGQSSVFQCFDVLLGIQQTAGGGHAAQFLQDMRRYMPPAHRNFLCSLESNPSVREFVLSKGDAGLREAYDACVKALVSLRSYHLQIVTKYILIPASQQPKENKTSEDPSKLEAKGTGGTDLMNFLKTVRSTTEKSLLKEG

Molecule	IC50 [µM]
COCC(CC(=O)O)c1ccc(N2CCOC(C)C2)c(Nc2ccc(C#N)cc2)c1 (single isomer, unassigned) [Example 1312, 3-(3-((4-cyanophenyl)amino)-4-(2-methylmorpholino)phenyl)-4-methoxybutanoic acid]	> 0.05
CCC(CC(=O)O)c1ccc(N2CCOCC2)c(Nc2ccc(C#N)cc2)c1 (single isomer, unassigned) [Example 6 Enantiomer 1, 3-(3-((4-Cyanophenyl)amino)-4-morpholinophenyl)pentanoic acid]	> 0.05
CCN(c1ccc([C@@H](COC)CC(=O)O)cc1Nc1ccc(C#N)c(C(F)(F)F)c1)C1CCOCC1 (single isomer, unassigned) [Example 383]	> 0.05
CC(CC(=O)O)c1ccc(N2C[C@@H](C)O[C@@H](C)C2)c(NC(=O)Nc2ccc(C#N)cc2)c1 (single isomer, unassigned) [Example 750]	> 0.05
CCC1COCCN1c1ccc([C@@H](COC)CC(=O)O)cc1Nc1ccc(C#N)cc1 (single isomer, unassigned) [Example 1281]	> 0.05
COCC(CC(=O)O)c1ccc(N(C)C2CCOCC2)c(Nc2ccc(C#N)cc2)c1 (single isomer, unassigned) [Example 873, 3-(3-((4-Cyanophenyl)amino)-4-(methyl(tetrahydro-2H-pyran-4-yl)amino)phenyl)-4-methoxybutanoic acid]	< 0.05
CCOc1ncc(Nc2cc(C(CC)CC(=O)O)ccc2N2CCC(c3ccccc3)CC2)cn1 (single isomer, unassigned) [Example 47 Enantiomer 2, 3-(3-((2-Ethoxypyrimidin-5-yl)amino)-4-(4-phenylpiperidin-1-yl)phenyl)pentanoic acid]	< 0.05
CCOc1ncc(Nc2cc([C@H](CC)CNS(=O)(=O)CC)ccc2N(CC)C2CCOCC2)cn1 [Example 1325, (S)-N-(2-(3-((2-Ethoxypyrimidin-5-yl)amino)-4-(ethyl(tetrahydro-2H-pyran-4-yl)amino)phenyl)butyl)ethanesulfonamide]	< 0.05
COCC(CC(=O)O)c1ccc(NC2CCOCC2)c(Nc2ccc(C#N)cc2)c1 (single isomer, unassigned) [Example 928 E1, 3-(3-((4-Cyanophenyl)amino)-4-((tetrahydro-2H-pyran-4-yl)amino)phenyl)-4-methoxybutanoic acid]	> 0.05
CCC1COCCN1c1ccc([C@H](COC)CC(=O)O)cc1Nc1cnc(OC)nc1 (single isomer, unassigned) [Example 1290]	> 0.05
CCN(c1ccc([C@@H](COC)CC(=O)O)cc1Nc1ncc(F)cn1)C1CCOCC1 (single isomer, unassigned) [Example 359]	> 0.05
C[C@@H]1CN(c2ccc(C(CC(=O)O)C3CC3)cc2Nc2ccc(C#N)cc2)C[C@H](C)O1 (single isomer, unassigned) [Example 247]	> 0.05
COCC(CC(=O)O)c1cc(F)c(N(CC(C)C)CC(C)C)c(Nc2ccc3c(c2)OC(F)(F)O3)c1 (single isomer, unassigned) [Example 924, 3-(3-((2,2-difluorobenzo[d] [1,3]dioxol-5-yl)amino)-4-(diisobutylamino)-5-fluorophenyl)-4-methoxybutanoic acid]	< 0.05
CCC(CC(=O)O)c1ccc(N(CC)C2CCCOC2)c(Nc2cnc(OC)nc2)c1 (single isomer, unassigned) [Example 68, 3-(4-(ethyl(tetrahydro-2H-pyran-3-yl)amino)-3-((2-methoxypyrimidin-5-yl)amino)phenyl)pentanoic acid]	< 0.05
CCN(c1ccc([C@@H](COC)CC(=O)O)cc1Nc1ccc(C#N)cc1C)C1CCOCC1 (single isomer, unassigned) [Example 367]	< 0.05
CCCN(c1ccc([C@H](COC)CC(=O)O)cc1Nc1cnc(OCC2CC2)nc1)C1CCOCC1 (single isomer, unassigned) [Example 573]	< 0.05
(R)-3-(4-((1,1-dioxidotetrahydro-2H-thiopyran-4-yl)(ethyl)amino)- 3-((2-ethoxypyrimidin-5- yl)amino)phenyl)-4- isopropoxybutanoic acid [Example 333]	> 0.05
COCCN(c1ccc(C(COC)CC(=O)O)cc1Nc1ccc(C#N)cc1)C1CCOCC1 (single isomer, unassigned) [Example 257, 3-(3-((4-cyanophenyl)amino)-4-((2-methoxyethyl)(tetrahydro-2H-pyran-4-yl)amino)phenyl)-4-methoxybutanoic acid]	< 0.05
CCOc1cnc(Nc2cc(C(C)CC(=O)O)ccc2N(CC)C2CCOCC2)cn1 (single isomer, unassigned) [Example 630, 3-(3-((5-ethoxypyrazin-2-yl)amino)-4-(ethyl (tetrahydro-2H-pyran-4-yl)amino)phenyl)butanoic acid]	< 0.05
CCC(CC(=O)O)c1ccc(N2CCN(C(=O)OC(C)(C)C)CC2)c(Nc2ccc(C#N)cc2)c1 (single isomer, unassigned) [Example 674 Enantiomer 2, 3-(4-(4-(tert-Butoxycarbonyl)piperazin-1-yl)-3-((4-cyanophenyl)amino)phenyl)pentanoic acid]	> 0.05
CCOc1ncc(Nc2cc(C(CC)CC(=O)O)ccc2N(CC)C2CCN(Cc3ccccc3)CC2)cn1 (single isomer, unassigned) [Example 939, 3-(4-((1-Benzylpiperidin-4-yl)(ethyl)amino)-3-((2-ethoxypyrimidin-5-yl)amino)phenyl)pentanoic acid]	< 0.05
CCN(c1ccc(C(CC)(CC)CC(=O)O)cc1NC(=O)Nc1ccc(C)cc1)C1CCOCC1 [Example 30, 3-Ethyl-3-(4-(ethyl(tetrahydro-2H-pyran-4-yl)amino)-3-(3-(p-tolyl)ureido)phenyl)pentanoic acid]	< 0.05

Results, then the molecule that gave them:

IC50 [µM]	Molecule
< 0.005	CCN(c1ccc(C(C)CC(=O)O)cc1Nc1ccc(F)cc1)C1CCOCC1 (single isomer, unassigned) [Example 627, 3-(4-(ethyl(tetrahydro-2H-pyran-4-yl)amino)-3-((4-fluorophenyl)amino)phenyl) butanoic acid]
< 0.005	CCC(CC(=O)O)c1ccc(N(CC)C2CCCOC2)c(Nc2cnc(OC)nc2)c1 (single isomer, unassigned) [Example 62, 3-(4-(ethyl(tetrahydro-2H-pyran-3-yl)amino)-3-((2-methoxypyrimidin-5-yl)amino)phenyl)pentanoic acid]
< 0.005	CCN(c1ccc(C(CC)(CC)CC(=O)O)cc1Nc1ccc(Cl)cc1)C1CCOCC1 [Example 26, 3-(3-((4-Chlorophenyl)amino)-4-(ethyl(tetrahydro-2H-pyran-4-yl)amino)phenyl)-3-ethylpentanoic acid]
< 0.005	COCC(CC(=O)O)c1cc(F)c(N(CC(C)C)CC(C)C)c(Nc2ccc(Cl)cc2)c1 (single isomer, unassigned) [Example 920, 3-(3-((4-Chlorophenyl)amino)-4-(diisobutylamino)-5-fluorophenyl)-4-methoxybutanoic acid]
< 0.05	CCC(CC(=O)O)c1ccc(N(C)C2CCOCC2)c(Nc2ccc(C#N)cc2)c1 (single isomer, unassigned) [Example 866, 3-(3-((4-Cyanophenyl)amino)-4-(methyl(tetrahydro-2H-pyran-4-yl)amino)phenyl)pentanoic acid]
< 0.05	CCN(c1cc(F)c(C(COC)CC(=O)O)cc1NC(=O)Nc1ccc(Cl)cc1F)C1CCOCC1 (single isomer, unassigned) [Example 855, 3-(5-(3-(4-Chloro-2-fluorophenyl)ureido)-4-(ethyl(tetrahydro-2H-pyran-4-yl)amino)-2-fluorophenyl)-4-methoxybutanoic acid]
< 0.005	CCCN(c1ccc([C@@H](CC)CC(=O)O)cc1NC(=O)Nc1ccc(Cl)cc1F)C1CCOCC1 (single isomer, unassigned) [Example 544]
< 0.005	CCN(c1ccc(C(CC(=O)O)C2CC2)cc1Nc1ccc(Cl)cc1)C1CCOCC1 (single isomer, unassigned) [Example 33 Enantiomer 1, 3-(3-((4-Chlorophenyl)amino)-4-(ethyl(tetrahydro-2H-pyran-4-yl)amino)phenyl)-3-cyclopropylpropanoic acid]
< 0.005	CC[C@H](CC(=O)O)c1ccc(N(CC)C2CCOCC2)c(Nc2cnc(C)nc2)c1 (single isomer, unassigned) [Example 1363]
< 0.005	CCCN(c1ccc([C@H](CC)CC(=O)O)cc1Nc1ccc(OC)nc1)C1CCOCC1 (single isomer, unassigned) [Example 553]
< 0.005	CCN(c1ccc(C(CC(=O)O)C2CC2)cc1Nc1ccc(C#N)cc1)C1CCOCC1 (single isomer, unassigned) [Example 34, 3-(3-((4-cyanophenyl)amino)-4-(ethyl(tetrahydro-2H-pyran-4-yl)amino)phenyl)-3-cyclopropylpropanoic acid]
< 0.005	CCC(CC(=O)O)c1ccc(N(CC)C2CCCOC2)c(Nc2cnc(OC)nc2)c1 (single isomer, unassigned) [Example 65, 3-(4-(ethyl(tetrahydro-2H-pyran-3-yl)amino)-3-((2-methoxypyrimidin-5-yl)amino)phenyl)pentanoic acid]
< 0.005	CCCN(c1ccc([C@H](CC)CC(=O)O)cc1Nc1cnc(OC)nc1)C1CCOCC1 (single isomer, unassigned) [Example 551]
< 0.005	COCC(CC(=O)O)c1ccc(N(CC(F)F)C2CCOCC2)c(Nc2ccc(C#N)cc2)c1 (single isomer, unassigned) [Example 322, 3-(3-((4-cyanophenyl)amino)-4-((2,2-difluoroethyl)(tetrahydro-2H-pyran-4-yl)amino)phenyl)-4-methoxybutanoic acid]
< 0.005	CCC(CC(=O)O)c1ccc(N2C[C@@H]3C[C@H]2CN3C(=O)OC(C)(C)C)c(Nc2ccccc2)c1 (single isomer, unassigned) [Example 444]
< 0.005	CCC(CC(=O)O)c1cnc(N(CC)C2CCOCC2)c(Nc2ccc(Cl)cc2)c1 (racemic) [Example 1380]
